Earlier results in US20260108532A1, “COMPOSITION FOR PREVENTING HEART DISEASES CAUSED BY PULMONARY HYPERTENSION AND TREATING HEART, AND FUNCTIONAL FORMULATION COMPRISING SAME” (CARESIDE CO., LTD., priority 2023, published 2026).

Experiments:
[1] = dogs; long-term administration
[2] = tested on: dogs with subclinical myxomatous mitral valve disease (MMVD); conditions: compared with placebo-administered group
[3] = potassium-sparing diuretic such as spironolactone
[4] = tested on: dogs with subclinical (asymptomatic) CMVI; conditions: at 35 days of administration, compared to placebo administered group

Structure (SMILES): Cc1cccc(Nc2ccncc2S(=O)(=O)NC(=O)NC(C)C)c1 [torsemide, Torsemide]
- ceiling effect [1]: almost no ceiling effect

Structure (SMILES): CC(=O)S[C@@H]1CC2=CC(=O)CC[C@]2(C)[C@H]2CC[C@@]3(C)[C@@H](CC[C@@]34CCC(=O)O4)[C@H]12 [spironolactone, Spironolactone]
- increase in heart size and cardiac biomarker concentration on cardiac ultrasound [2]: much smaller
- diuretic effect as share of the efficacy of the loop diuretic [3]: ~10%

Structure (SMILES): COc1ccc(-c2nc3ccc(C4=NNC(=O)CC4C)cc3[nH]2)cc1 (stereo not shown) [pimobendan, Pimobendan]
- LVIDd and LA/Ao on imaging diagnosis [4]: decreased
